Measured values: ChEMBL document CHEMBL3774316, “Design, synthesis and anti-HIV-1 evaluation of hydrazide-based peptidomimetics as selective gelatinase inhibitors” (Bioorg Med Chem, 2016)

How the values were obtained:
[1] = target: T1, Aminopeptidase N (Sus scrofa, UniProt P15145); assay: Inhibition of porcine microsomal aminopeptidase N preincubated for 30 mins using L-Leu-p-nitroanilide as substrate by UV-VIS spectrophotometer
T1 sequence (P15145 whole entry): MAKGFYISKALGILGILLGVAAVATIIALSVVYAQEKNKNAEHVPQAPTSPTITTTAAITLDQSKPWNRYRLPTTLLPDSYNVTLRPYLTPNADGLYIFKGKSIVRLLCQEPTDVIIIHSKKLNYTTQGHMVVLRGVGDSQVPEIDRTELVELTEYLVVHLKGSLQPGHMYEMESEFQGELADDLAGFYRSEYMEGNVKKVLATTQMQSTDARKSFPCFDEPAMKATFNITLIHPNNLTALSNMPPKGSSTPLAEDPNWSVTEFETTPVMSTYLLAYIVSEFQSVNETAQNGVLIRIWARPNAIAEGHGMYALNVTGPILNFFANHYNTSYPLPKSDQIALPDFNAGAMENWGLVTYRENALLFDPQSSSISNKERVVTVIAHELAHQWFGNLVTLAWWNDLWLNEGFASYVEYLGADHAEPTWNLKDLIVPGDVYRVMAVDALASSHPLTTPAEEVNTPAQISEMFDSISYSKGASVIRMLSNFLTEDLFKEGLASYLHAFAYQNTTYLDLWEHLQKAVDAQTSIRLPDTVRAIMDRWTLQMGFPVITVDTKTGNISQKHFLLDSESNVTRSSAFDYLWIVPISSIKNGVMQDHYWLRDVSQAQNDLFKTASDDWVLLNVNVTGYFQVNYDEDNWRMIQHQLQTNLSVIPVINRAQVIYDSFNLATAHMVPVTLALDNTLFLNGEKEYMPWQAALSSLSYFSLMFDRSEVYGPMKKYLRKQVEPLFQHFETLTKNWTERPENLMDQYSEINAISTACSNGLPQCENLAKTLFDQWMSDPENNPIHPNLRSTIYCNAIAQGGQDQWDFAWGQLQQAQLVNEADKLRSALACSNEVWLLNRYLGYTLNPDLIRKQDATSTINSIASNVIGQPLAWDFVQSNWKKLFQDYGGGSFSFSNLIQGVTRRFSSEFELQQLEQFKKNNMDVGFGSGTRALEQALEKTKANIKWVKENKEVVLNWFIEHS

[2] = tested on: C8166; assay: Cytotoxicity against human C8166 cells after 72 hrs by MTT assay; assay type: functional; details: C8166, 72 h
[3] = tested on: Human immunodeficiency virus 1; assay: Antiviral activity against HIV1 3B infected in human C8166 cells assessed as cytopathic effect by counting the number of syncytia by microscopy; assay type: functional, organism-based; details: Human immunodeficiency virus 1, 3B
[4] = Therapeutic index, ratio of CC50 for human C8166 cells to EC50 for HIV1 3B infected in human C8166 cells; assay type: cell-based; details: read-out: Ratio CC50/EC50
[5] = target: 72 kDa type IV collagenase (Homo sapiens, UniProt P08253); assay: Inhibition of gelatinase A (unknown origin) after 30 mins using succinylated gelatin as substrate
[6] = tested on: Human immunodeficiency virus 1; assay: Antiviral activity against HIV1 3B infected in human C8166 cells assessed as reduction in p24 antigen level incubated for 2 hrs followed by cell plating for 72 hrs by ELISA method; assay type: functional, organism-based; details: Human immunodeficiency virus 1, 3B
[7] = tested on: Human immunodeficiency virus 1; assay: Antiviral activity against HIV1 A17 infected in human C8166 cells assessed as reduction in p24 antigen level incubated for 4 hrs followed by cell plating for 72 hrs by ELISA method; assay type: functional, organism-based; details: Human immunodeficiency virus 1, A17, C8166
[8] = tested on: Human immunodeficiency virus 1; assay: Antiviral activity against HIV1 74V infected in human C8166 cells assessed as reduction in p24 antigen level incubated for 4 hrs followed by cell plating for 72 hrs by ELISA method; assay type: functional, organism-based; details: Human immunodeficiency virus 1, 74V

Chain of 72 kDa type IV collagenase (P08253 whole entry): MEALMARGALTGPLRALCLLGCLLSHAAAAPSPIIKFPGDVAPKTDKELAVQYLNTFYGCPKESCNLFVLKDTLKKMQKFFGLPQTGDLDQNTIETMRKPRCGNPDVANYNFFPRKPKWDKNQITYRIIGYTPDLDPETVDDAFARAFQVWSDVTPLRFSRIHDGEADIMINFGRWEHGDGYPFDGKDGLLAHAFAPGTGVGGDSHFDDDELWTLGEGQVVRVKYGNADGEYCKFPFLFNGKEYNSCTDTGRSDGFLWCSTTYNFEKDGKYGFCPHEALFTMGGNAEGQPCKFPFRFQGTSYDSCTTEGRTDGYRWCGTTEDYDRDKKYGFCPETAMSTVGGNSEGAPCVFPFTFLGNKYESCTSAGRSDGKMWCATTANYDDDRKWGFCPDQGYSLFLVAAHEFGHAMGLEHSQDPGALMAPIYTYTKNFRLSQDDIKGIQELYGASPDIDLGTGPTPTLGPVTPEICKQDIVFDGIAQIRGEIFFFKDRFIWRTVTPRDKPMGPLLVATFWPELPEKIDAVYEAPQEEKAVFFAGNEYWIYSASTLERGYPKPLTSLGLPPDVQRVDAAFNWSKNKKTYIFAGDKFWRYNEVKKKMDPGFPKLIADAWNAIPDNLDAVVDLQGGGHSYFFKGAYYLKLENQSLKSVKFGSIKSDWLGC

Compound	IC50 [1] [µM]	CC50 [2] [µM]	EC50 [3] [µM]	selectivity ratio [4]	IC50 [5] [µM]	EC50 [6] [µM]	EC50 [7] [µM]	EC50 [8] [µM]
Cc1ccc(S(=O)(=O)N2CC3(C[C@H]2C(=O)NN)SCCS3)cc1	> 1000	> 519	239	> 2.2				
C/C(=N\NC(=O)Cn1c(=O)c(C)nc2ccccc21)c1ccc(Cl)cc1	125	> 543	> 543		13.2			
Cc1ccc(S(=O)(=O)N2CC3(C[C@H]2C(=O)N/N=C/c2ccc(N(C)C)cc2)SCCS3)cc1	> 1000	> 397	37.7	> 10.5	5.52	75.6	74	56.3
CC(=O)NNC(=O)Cn1c(=O)c(C)nc2ccccc21	328	> 730	> 730		> 500			
Cc1nc2ccccc2n(CC(=O)N/N=C/c2ccc(Cl)cc2)c1=O	449	> 565	32.2	> 17.5	81			
COc1ccccc1/C=N/NC(=O)[C@@H]1CC2(CN1S(=O)(=O)c1ccc(C)cc1)SCCS2	> 1000	388	51.1	7.6	28.5	69.6	11.4	30
Cc1ccc(/C=N/NC(=O)[C@@H]2CC3(CN2S(=O)(=O)c2ccc(C)cc2)SCCS3)cc1	> 1000	> 421	40.5	> 10.4	36.8	39.3	> 200	> 200
COc1ccc(/C=N/NC(=O)Cn2c(=O)c(C)nc3ccccc32)c(OC)c1	243	> 526	126	> 4.2	74.9			
COc1cccc(/C=N/NC(=O)Cn2c(=O)c(C)nc3ccccc32)c1O	80.9	115	2.79	41.3	7.17	6.05	2.46	3.48
Cc1ccc(S(=O)(=O)N2CC3(C[C@H]2C(=O)N/N=C/c2ccccc2Cl)SCCS3)cc1	> 1000	> 404	30.3	> 13.3	0.64	149	18.2	93.6
Cc1nc2ccccc2n(CC(=O)NNC(=O)c2ccc(Cl)cc2)c1=O	272	> 540	169	> 3.2	34.8			
Cc1nc2ccccc2n(CC(=O)N/N=C/Cc2ccccc2)c1=O	223	> 599	82.8	> 7.2	36			
Cc1ccc(/C=N/NC(=O)Cn2c(=O)c(C)nc3ccccc32)cc1	307	262	51.3	5.1	38.6			
Cc1ccc(S(=O)(=O)N2CC3(C[C@H]2C(=O)N/N=C/c2cccc([N+](=O)[O-])c2)SCCS3)cc1	> 1000	> 395	16	> 24.6	1.05	3.89	9.94	5.07
COc1ccc(/C=N/NC(=O)Cn2c(=O)c(C)nc3ccccc32)cc1OC	481	> 526	81	> 6.5	28.8			
Cc1nc2ccccc2n(CC(=O)NNC(=O)Cc2ccccc2)c1=O	333	> 571	296	> 1.9	159			
C/C(=N\NC(=O)Cn1c(=O)c(C)nc2ccccc21)c1ccc([N+](=O)[O-])cc1	389	> 528	145	> 3.6	90.8			
C/C(=N\NC(=O)Cn1c(=O)c(C)nc2ccccc21)c1ccccc1Cl	439	> 543	> 543		112			

Compound	IC50 [1] [µM]	CC50 [2] [µM]	EC50 [3] [µM]	selectivity ratio [4]	IC50 [5] [µM]	EC50 [6] [µM]	EC50 [7] [µM]	EC50 [8] [µM]
Cc1ccc(S(=O)(=O)N2CC3(C[C@H]2C(=O)N/N=C/c2ccccc2[N+](=O)[O-])SCCS3)cc1	> 1000	65	32.9	1.9	0.24			
Cc1ccc(S(=O)(=O)N2CC3(C[C@H]2C(=O)N/N=C/c2ccccc2F)SCCS3)cc1	> 1000	280	38.8	7.2	1.89			
Cc1nc2ccccc2n(CC(=O)N/N=C/c2ccccc2)c1=O	341	> 625	121	> 5.2	67			
Cc1nc2ccccc2n(CC(=O)N/N=C/c2ccco2)c1=O	103	> 645	301	> 2.1	17.2			
C/C(=N\NC(=O)Cn1c(=O)c(C)nc2ccccc21)c1cccc(Cl)c1	> 1000	> 543	> 543		567			
Cc1nc2ccccc2n(CC(=O)NNC(=O)c2c(Cl)cccc2Cl)c1=O	299	153	51.6	2.97	58.2			
Cc1nc2ccccc2n(CC(=O)N/N=C/c2ccc(N(C)C)cc2)c1=O	331	355	159	2.2	64.3			
C/C(=N\NC(=O)Cn1c(=O)c(C)nc2ccccc21)c1ccccc1	99.9	491	54.9	8.9	9.39			
Cc1nc2ccccc2n(CC(=O)N/N=C/c2ccc([N+](=O)[O-])cc2)c1=O	644	> 548	42.1	> 7.7	246			
Cc1nc2ccccc2n(CC(=O)NNC(=O)c2ccccc2)c1=O		> 595	273		187			
COc1cc(/C=N/NC(=O)[C@@H]2CC3(CN2S(=O)(=O)c2ccc(C)cc2)SCCS3)cc(OC)c1OC	> 1000	327	38.5	8.5	210	65.1	38.7	96
Cc1nc2ccccc2n(CC(=O)NN)c1=O	257	> 862	> 862		98			
Cc1ccc(S(=O)(=O)N2CC3(C[C@H]2C(=O)N/N=C/c2ccccc2Br)SCCS3)cc1	> 1000	177	28	6.3	0.41	33.4	18.3	30.6
COc1cc(/C=N/NC(=O)Cn2c(=O)c(C)nc3ccccc32)cc(OC)c1OC	57.6	> 488	83	> 5.9	223			
COc1ccc(/C=C/C(=O)N2C[C@@H](NC(=O)c3cccnc3)C[C@H]2C(=O)NO)cc1OC	117	> 454	33	> 13.8				
O=C1Nc2ccc(Cl)cc2[C@@](C#CC2CC2)(C(F)(F)F)O1 [EFAVIRENZ]							184	
Cc1cn([C@H]2C[C@H](N=[N+]=[N-])[C@@H](CO)O2)c(=O)[nH]c1=O [ZIDOVUDINE]		4680	0.00794	589000		0.00436		0.00152
